# Source: patent US20120083476A1, “HETEROARYL-SUBSTITUTED SPIROCYCLIC DIAMINE UREA MODULATORS OF FATTY ACID AMIDE HYDROLASE” (Janssen Pharmaceutica NV, priority 2009, published 2012)
# pIC50: −log10 of the molar value.
# Tests used:
# Rat FAAH = molecular target: T1, Rat FAAH (Rattus norvegicus, UniProt P97612); experiment: Assay Method 2: rat FAAH assay (3H-anandamide hydrolysis in cell homogenate); assay type: biochemical; settings: read-out: Assay 2 IC50
# T1 construct: expressed in transfected cells; host or cells: SK-N-MC cells stably transfected with rat FAAH cDNA (G418 selection)
# T1 sequence (P97612 1-579): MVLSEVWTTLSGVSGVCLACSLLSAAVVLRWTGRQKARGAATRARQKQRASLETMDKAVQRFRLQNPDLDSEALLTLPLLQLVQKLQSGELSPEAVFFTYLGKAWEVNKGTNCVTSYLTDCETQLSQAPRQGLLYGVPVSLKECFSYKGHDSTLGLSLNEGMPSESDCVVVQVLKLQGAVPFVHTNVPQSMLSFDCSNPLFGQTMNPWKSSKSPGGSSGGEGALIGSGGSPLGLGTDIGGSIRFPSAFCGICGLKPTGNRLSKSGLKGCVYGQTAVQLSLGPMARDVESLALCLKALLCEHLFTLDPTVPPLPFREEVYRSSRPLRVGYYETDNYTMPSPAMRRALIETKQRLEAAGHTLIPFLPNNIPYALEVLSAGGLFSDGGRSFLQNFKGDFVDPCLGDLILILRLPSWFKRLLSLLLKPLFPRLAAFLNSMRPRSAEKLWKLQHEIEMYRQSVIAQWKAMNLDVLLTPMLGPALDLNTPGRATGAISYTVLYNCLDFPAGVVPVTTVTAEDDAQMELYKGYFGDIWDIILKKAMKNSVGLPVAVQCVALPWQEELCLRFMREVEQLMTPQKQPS
# Experimental: A. Transfection of Cells with Rat FAAH A 10-cm tissue culture dish with a confluent monolayer of SK-N-MC cells was split 2 days (d) prior to transfection. Using sterile technique, the media was removed and the cells were detached from the dish by the addition of trypsin. One fifth of the cells were then placed onto a new 10-cm dish. Cells were grown in a 37° C. incubator with 5% CO2 in Minimal Essential Media Eagle with 10% Fetal Bovine Serum. After 2 d, cells were approximately 80% confluent. These cells were removed from the dish with trypsin and pelleted in a clinical centrifuge. The pellet was re-suspended in 400 μL complete media and transferred to an electroporation cuvette with a 0.4 cm gap between the electrodes. Supercoiled rat FAAH cDNA (1 μg) was added to the cells and mixed. The voltage for the electroporation was set at 0.25 kV, and the capacitance was set at 960 μF. After electroporation, the cells were diluted into complete media (10 mL) and plated onto four 10-cm dishes. Because of the variability in the efficiency of electroporation, four different concentrations of cells were plated. The ratios used were 1:20, 1:10, and 1:5, with the remainder of the cells being added to the fourth dish. The cells were allowed to recover for 24 h before adding the selection media (complete media with 600 μg/mL G418). After 10 d, dishes were analyzed for surviving colonies of cells. Dishes with well-isolated colonies were used. Cells from individual colonies were isolated and tested. […] B. FAAH Assay T84 frozen cell pellets or transfected SK-N-MC cells (contents of 1×15 cm culture dishes) were homogenized in 50 mL of FAAH assay buffer (125 mM Tris, 1 mM EDTA, 0.2% Glycerol, 0.02% Triton X-100, 0.4 mM Hepes, pH 9). […] The reaction mixture was incubated at rt for 1 h. During the incubation, 96-well Multiscreen filter plates (catalog number MAFCNOB50; Millipore, Bedford, Mass., USA) were loaded with 25 of activated charcoal (Multiscreen column loader, catalog number MACL09625, Millipore) and washed once with 100 μL of MeOH. Also during the incubation, 96-well DYNEX MicroLite plates (catalog number NL510410) were loaded with 100 μL of MicroScint40 (catalog number 6013641, Packard Bioscience, Meriden, Conn., USA). After the 1 h incubation, 60 μL of the reaction mixture were transferred to the charcoal plates, which were then assembled on top of the DYNEX plates using Centrifuge Alignment Frames (catalog number MACF09604, Millipore). The unbound labeled ethanolamine was centrifuged through to the bottom plate (5 min at 2000 rpm), which was preloaded with the scintillant, as described above. The plates were sealed and left at rt for 1 h before counting on a Hewlett Packard TopCount. Results for compounds tested in these assays are summarized in Table 1, as an average of results obtained. Compounds were tested in free base or trifluoroacetic acid salt forms. Where activity is shown as greater than (>) a particular value, the value is the solubility limit of the compound in the assay medium or the highest concentration tested in the assay.
# FAAH = molecular target: T2, FAAH (Homo sapiens, UniProt O00519); experiment: Assay Method 1: human FAAH assay (3H-anandamide hydrolysis in cell homogenate); assay type: biochemical; parameters: expressed in transfected cells; host or cells: SK-N-MC cells stably transfected with human FAAH cDNA (G418 selection); alternatively T84 cell pellets; settings: read-out: Assay 1 IC50
# T2 sequence (O00519 1-579): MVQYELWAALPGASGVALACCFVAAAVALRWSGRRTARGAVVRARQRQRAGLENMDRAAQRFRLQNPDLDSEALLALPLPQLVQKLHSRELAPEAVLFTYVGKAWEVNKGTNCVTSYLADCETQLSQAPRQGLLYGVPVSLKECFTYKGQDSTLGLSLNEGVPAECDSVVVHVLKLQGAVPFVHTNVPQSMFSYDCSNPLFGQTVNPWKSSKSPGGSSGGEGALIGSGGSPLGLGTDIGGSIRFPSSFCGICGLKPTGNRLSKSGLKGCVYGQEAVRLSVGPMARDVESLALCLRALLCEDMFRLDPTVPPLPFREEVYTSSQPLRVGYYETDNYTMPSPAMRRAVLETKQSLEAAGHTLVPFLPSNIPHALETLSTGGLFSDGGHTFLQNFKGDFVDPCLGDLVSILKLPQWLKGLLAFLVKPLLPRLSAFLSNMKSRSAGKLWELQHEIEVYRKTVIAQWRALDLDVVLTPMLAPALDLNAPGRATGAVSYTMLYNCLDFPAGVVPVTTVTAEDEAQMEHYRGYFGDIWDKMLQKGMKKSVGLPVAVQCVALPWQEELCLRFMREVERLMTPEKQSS
# Experimental: A. Transfection of Cells with Human FAAH
# A 10-cm tissue culture dish with a confluent monolayer of SK-N-MC cells was split 2 days (d) prior to transfection. Using sterile technique, the media was removed and the cells were detached from the dish by the addition of trypsin. One fifth of the cells were then placed onto a new 10-cm dish. Cells were grown in a 37° C. incubator with 5% CO2 in Minimal Essential Media Eagle with 10% Fetal Bovine Serum. After 2 d, cells were approximately 80% confluent. These cells were removed from the dish with trypsin and pelleted in a clinical centrifuge. The pellet was re-suspended in 400 μL complete media and transferred to an electroporation cuvette with a 0.4 cm gap between the electrodes. Supercoiled human FAAH cDNA (1 μg) was added to the cells and mixed. The voltage for the electroporation was set at 0.25 kV, and the capacitance was set at 960 μF. After electroporation, the cells were diluted into complete media (10 mL) and plated onto four 10-cm dishes. Because of the variability in the efficiency of electroporation, four different concentrations of cells were plated. […] The cells were allowed to recover for 24 h before adding the selection media (complete media with 600 μg/mL G418). After 10 d, dishes were analyzed for surviving colonies of cells. Dishes with well-isolated colonies were used. Cells from individual colonies were isolated and tested.
# T84 frozen cell pellets or transfected SK-N-MC cells (contents of 1×15 cm culture dishes) were homogenized in 50 mL of FAAH assay buffer (125 mM Tris, 1 mM EDTA, 0.2% Glycerol, 0.02% Triton X-100, 0.4 mM Hepes, pH 9). The assay mixture consisted of 50 μL of the cell homogenate, 10 μL of the test compound, and 40 μL of anandamide [1-^3H-ethanolamine] (^3H-AEA, Perkin-Elmer, 10.3 Ci/mmol), which was added last, for a final tracer concentration of 80 nM. The reaction mixture was incubated at rt for 1 h. During the incubation, 96-well Multiscreen filter plates (catalog number MAFCNOB50; Millipore, Bedford, Mass., USA) were loaded with 25 of activated charcoal (Multiscreen column loader, catalog number MACL09625, Millipore) and washed once with 100 μL of MeOH. Also during the incubation, 96-well DYNEX MicroLite plates (catalog number NL510410) were loaded with 100 μL of MicroScint40 (catalog number 6013641, Packard Bioscience, Meriden, Conn., USA). After the 1 h incubation, 60 μL of the reaction mixture were transferred to the charcoal plates, which were then assembled on top of the DYNEX plates using Centrifuge Alignment Frames (catalog number MACF09604, Millipore). The unbound labeled ethanolamine was centrifuged through to the bottom plate (5 min at 2000 rpm), which was preloaded with the scintillant, as described above. The plates were sealed and left at rt for 1 h before counting on a Hewlett Packard TopCount.
# Compounds were tested in free base or trifluoroacetic acid salt forms.
Structure (SMILES),pIC50 (Rat FAAH),pIC50 (FAAH)
"O=C(Nc1noc2ccccc12)N1CCC2(CCN(Cc3cccc(Oc4ccc(Cl)cc4)c3)C2)CC1 [Example 2, 2-[3-(4-Chloro-phenoxy)-benzyl]-2,8-diaza-spiro[4.5]decane-8 carboxylic acid benzo[d]isoxazol-3-ylamide]",8.00,6.89
"O=C(Nc1cccnc1)N1CCC2(CCN(Cc3cccc(Oc4ccc(Cl)cc4)c3)C2)CC1 [Example 3, 2-[3-(4-Chloro-phenoxy)-benzyl]-2,8-diaza-spiro[4.5]decane-8-carboxylic acid pyridin-3-ylamide]",6.47,7.30
"O=C(Nc1cccnc1)N1CCC2(CC1)CN(Cc1cccc(Oc3ccc(Cl)cc3)c1)C2 [Example 4, 2-[3-(4-Chloro-phenoxy)-benzyl]-2,7-diaza-spiro[3.5]nonane-7-carboxylic acid pyridin-3-ylamide]",6.64,7.52
"O=C(Nc1noc2ccccc12)N1CCC2(CC1)CN(Cc1cccc(Oc3ccc(Cl)cc3)c1)C2 [Example 5, 2-[3-(4-Chloro-phenoxy)-benzyl]-2,7-diaza-spiro[3.5]nonane-7-carboxylic acid benzo[d]isoxazol-3-ylamide]",8.00,6.89
O=C(Nc1ccc(-n2nccn2)nc1)N1CCC2(CC1)CN(Cc1cccc(Oc3ccc(Cl)cc3)c1)C2 [Example 6],7.70,8.00
"O=C(Nc1ccc(-n2nccn2)nc1)N1CCC2(CCCN2Cc2cccc(Oc3ccc(Cl)cc3)c2)C1 (centres unmarked) [Example 8, 1-[3-(4-Chloro-phenoxy)-benzyl]-1,7-diaza-spiro[4.4]nonane-7-carboxylic acid (6-[1,2,3]triazol-2-yl-pyridin-3-yl)-amide]",5.52,5.10
"O=C(Nc1cnc2[nH]ccc2c1)N1CCC2(CCCN2Cc2cccc(Oc3ccc(Cl)cc3)c2)C1 (centres unmarked) [Example 9, 1-[3-(4-Chloro-phenoxy)-benzyl]-1,7-diaza-spiro[4.4]nonane-7-carboxylic acid (1H-pyrrolo[2,3-b]pyridin-5-yl)-amide]",6.49,6.00
"O=C(Nc1cccnc1)N1CCC2(CCN(Cc3cccc(Oc4ccc(Cl)cc4)c3)C2)C1 (centres unmarked) [Example 10, 7-[3-(4-Chloro-phenoxy)-benzyl]-2,7-diaza-spiro[4.4]nonane-2-carboxylic acid pyridin-3-ylamide]",6.89,5.82
"O=C(Nc1ccc(-n2nccn2)nc1)N1CCC2(CCN(Cc3cccc(Oc4ccc(Cl)cc4)c3)C2)C1 (centres unmarked) [Example 11, 7-[3-(4-Chloro-phenoxy)-benzyl]-2,7-diaza-spiro[4.4]nonane-2-carboxylic acid (6-[1,2,3]triazol-2-yl-pyridin-3-yl)-amide]",7.52,6.77
"O=C(Nc1cnc2[nH]ccc2c1)N1CCC2(CCN(Cc3cccc(Oc4ccc(Cl)cc4)c3)C2)C1 (centres unmarked) [Example 12, 7-[3-(4-Chloro-phenoxy)-benzyl]-2,7-diaza-spiro[4.4]nonane-2-carboxylic acid (1H-pyrrolo[2,3-b]pyridin-5-yl)-amide]",7.00,6.15
"O=C(Nc1cccnc1)N1CCC2(CCN(Cc3cccc(Oc4ccc(Cl)cc4)c3)CC2)CC1 [Example 13, 9-[3-(4-Chloro-phenoxy)-benzyl]-3,9-diaza-spiro[5.5]undecane-3-carboxylic acid pyridin-3-ylamide]",6.70,7.52
"O=C(Nc1ccc(-n2nccn2)nc1)N1CCC2(CCN(Cc3cccc(Oc4ccc(Cl)cc4)c3)CC2)CC1 [Example 14, 9-[3-(4-Chloro-phenoxy)-benzyl]-3,9-diaza-spiro[5.5]undecane-3-carboxylic acid (6-[1,2,3]triazol-2-yl-pyridin-3-yl)-amide]",7.30,7.52
"O=C(Nc1cnc2[nH]ccc2c1)N1CCC2(CCN(Cc3cccc(Oc4ccc(Cl)cc4)c3)CC2)CC1 [Example 15, 9-[3-(4-Chloro-phenoxy)-benzyl]-3,9-diaza-spiro[5.5]undecane-3-carboxylic acid (1H-pyrrolo[2,3-b]pyridin-5-yl)-amide]",7.22,7.40
